# From patent US20260242829A1, “Use of Inhibitors to Increase Efficiency of CRISPR/Cas Insertions” (ASTRAZENECA AB, priority 2023, published 2026)
# Test system: HEK293T cells
# Experiment: Effect of MMEJ and NHEJ inhibitors on CRISPR-Cas-induced double-strand break repair pathways and editing efficiency (amplicon sequencing, RIMA2)
# Assay type: cell-based
# Conditions: AZD7648 (1 µM) alone and in combination with Compound 1 at indicated concentrations, CRISPR/Cas9-mediated gene targeting, FIG. 4
# Method: The effect of inhibitors of the MMEJ and NHEJ pathways on CRISPR-Cas-induced DNA double stranded break repair pathways was examined using the process shown schematically in FIG. 2A. Briefly, HEK293T cells were seeded into a 96-well plate 20 hours before transfection with plasmids encoding SpCas9 and a guide RNA (sgRNA) targeting CD34 in the presence and absence of single-stranded oligonucleotide donor (ssDNA). Two hours prior to transfection, the cells were submitted to inhibitor treatments, including the following conditions: a) 1 μM DNAPK inhibitor AZD7648 b) 1 μM DNAPK inhibitor AZD7648 in combination with compound 1, which was titrated in a 1:2 dilution series, ranging between 10 μM and 0.01 μM and corresponding DMSO control. Seventy hours post-transfection, cell confluence and eGFP-based transfection efficiencies were determined with the Incucyte SX5. Genomic DNA was extracted and editing outcome was analysed through deep-targeted amplicon sequencing and RIMA2 analysis (FIG. 2A) to determine knock-in frequencies as well as mutagenic DNA repair events, such as NHEJ and MMEJ outcomes (FIG. 2B).
row,SMILES,DNA double strand break repair pathway used after CRISPR/Cas gene targeting
1,Cc1cc2ncnn2cc1Nc1ncc2c(n1)n(C1CCOCC1)c(=O)n2C [AZD7648],"results in DNA double strand break repair by the more precise HDR pathway, and minimizes the contribution from the more error-prone MMEJ and NHEJ pathways"
2,"CN1CCN(CCOc2ccc(-c3nc4c(OC5(C)CC5)ncnc4n3Cc3ccccc3)c(Cl)c2)CC1 [Compound 1, 9-Benzyl-8-(2-chloro-4-(2-(4-methylpiperazin-1-yl)ethoxy)phenyl)-6-(1-methylcyclopropoxy)-9H-purine]","results in DNA double strand break repair by the more precise HDR pathway, and minimizes the contribution from the more error-prone MMEJ and NHEJ pathways"
